Results taken from ChEMBL document CHEMBL1159228, “The 1994 Japan-U.S. Seminar on Bioorganic Marine Chemistry, Meeting Report” (J Nat Prod, 1995).
Converted amounts (≈) assume the structure as drawn.

Legend:
[1] = Inhibition of inosine-5'-monophosphate dehydrogenase
L1210 = test: Cytotoxicity against mouse L1210 cells; type: functional, cell-based
P388 [2] = test: In vivo cytotoxicity against mouse P388 cells relative to control; type: functional
B16 [3] = test: In vivo cytotoxicity against mouse B16 cells relative to control; type: functional
M5076 = test: In vivo cytotoxicity against mouse M5076 cells relative to control; type: functional
[4] = In vivo cytotoxicity against mouse LLC cells relative to control; type: functional, Lewis lung carcinoma
P388 [5] = test: In vivo cytotoxicity against mouse P388 cells at 80 ug/kg relative to control; type: functional
Colon 26 = test: In vivo cytotoxicity against mouse Colon 26 cells at 80 ug/kg relative to control; type: functional
[6] = In vivo cytotoxicity against mouse LLC cells at 40 ug/kg relative to control; type: functional, Lewis lung carcinoma
[7] = In vivo cytotoxicity against mouse EAC cells at 40 ug/kg relative to control; type: functional, Ehrlich
B16 [8] = test: In vivo cytotoxicity against mouse B16 cells at 40 ug/kg relative to control; type: functional
[9] = Molluscicidal activity against common snail; type: organism-based; conditions: cornu aspersum, in vivo; read-out: LD50 (the source's name)
[10] = Ichthyotoxicity against Carassius auratus; type: organism-based; conditions: in vivo
P388 [11] = test: Cytotoxicity against mouse P388 cells; type: functional, cell-based

For `Oc1c(Oc2c(O)c(Br)c(Br)c(Br)c2Br)cc(Br)c(Br)c1Br`, the IC50 [1] was 1000 µM.
`C/C=C\[C@H](C)[C@@H]1O[C@]1(C)[C@@H](O)[C@@H](C)C(=O)[C@@H](CO)[C@@H](O)CC(=O)CC` gave an IC50 (L1210) of 100 ng/mL (≈ 281 nM).
Compound `COc1c(C)cc2c(c1O)[C@@H]1[C@@H]3[C@H]4SCC(N)C(=O)OC[C@@H](c5c(O)c(OC)c(C)c(OC(C)=O)c54)N3[C@@H](O)[C@H](C2)N1C` (stereo partly specified) has a T/C (P388 [2]) of 213%, a T/C (B16 [3]) of 241% and a T/C (M5076) of 210%. The T/C [4] was 0%.
In the case of `COc1c(C)cc2c(c1O)[C@@H]1[C@@H]3[C@H]4SCC(=O)C(=O)OC[C@@H](c5c(O)c(OC)c(C)c(OC(C)=O)c54)N3[C@@H](O)[C@H](C2)N1C`, the T/C (P388 [2]) is reported as 213%, the T/C (B16 [3]) is reported as 241% and the T/C (M5076) is reported as 210%. The T/C [4] was 0%.
In the case of `C#CC(O)/C=C/CCCCCCCCC/C=C\CCCCCCCCCCCC/C=C\CC#CC(=O)O` (stereo unspecified), the IC50 [1] is reported as 1000 µM.
`C=C1C(O)CC(=O)C(C)/C=C(\C)C[C@@H](O)[C@]2(O)O[C@H](CC[C@H]2O)CC(O)CCC(O)C(CCCC)OC(=O)C(C)C(O)C2OC12` (stereo partly specified) [AMPHIDINOLIDE N] gave an IC50 (L1210) of 0.05 ng/mL (≈ 0.0778 nM).
`COCC(C(=O)O[C@@H]1C/C=C/C=C/C(=O)O[C@H]([C@@H](C)[C@@H](O)[C@@H](C)CC[C@@H](OC(=O)C(C)N(C)C)[C@H](C)[C@H](OC(C)=O)[C@H](C)/C=C/N(C)C=O)C/C=C/[C@H](OC)C[C@H](C)C/C=C(\C)[C@@H](OC)CC[C@@H](C)[C@@H](O)[C@@H]1C)N(C)C` (stereo partly specified) [APLYRONINE A] showed a T/C (P388 [5]) of 545%, a T/C (Colon 26) of 255% and a T/C [6] of 556%. For the same compound, the T/C [7] was 398% and the T/C (B16 [8]) was 201%.
For `CO/C(=C\C(=O)N(C)[C@@H](Cc1ccccc1)c1nccs1)C[C@H](C)C(Cl)(Cl)Cl` [BARBARAMIDE A], the LC50 [9] was < 100000 ng/mL.
`O=C1NCCc2cc(Br)c(O)c(c2)Oc2ccc(cc2Br)[C@H](O)CNC(=O)/C(=N/O)Cc2cc(Br)c(O)c(c2)Oc2c(Br)cc(cc2Br)C/C1=N\O` [BASTADIN 8] gave an IC50 [1] of 1000 µM.
In the case of `CC1=C(O)/C(=C/C(C)CCCC(C)/C=C/C=C(\C)CCCc2ccoc2)OC1=O` (stereo unspecified) [FASCICULATIN], the IC50 [1] is reported as 1000 µM.
In the case of `C=C(CCNC(=O)CC/C=C/C[C@H](CCCCCCC)OC)[C@@]12O[C@@H]1CC=C(C)C2=O` [MALYNGAMIDE H], the LC50 [10] is reported as 25000 ng/mL (≈ 57900 nM).
With `C[C@@H]1[C@@]2(CC[C@](C)(O)CO2)O[C@H]2C=C3[C@@H]4[C@@H](O)C[C@H]5Cc6nc7c(nc6C[C@]5(C)[C@H]4C[C@@H](O)[C@]3(C)[C@]21O)C[C@@H]1CC[C@@H]2[C@H](CC(=O)[C@]23C[C@@H]2O[C@@]4(CCC(C)(C)O4)[C@@H](C)[C@@H]2[C@]3(C)O)[C@@]1(C)C7` [RITTERAZINE A] the IC50 (P388 [11]) was 0.018 ng/mL (≈ 0.0197 nM).
Compound `COc1cc2c(cc1O)CCN[C@]21CS[C@@H]2c3c(OC(C)=O)c(C)c4c(c3[C@H](COC1=O)N1[C@@H]2[C@H]2c3c(cc(C)c(OC)c3O)C[C@@H]([C@@H]1O)N2C)OCO4` [TRABECTEDIN] has a T/C (P388 [2]) of 213%, a T/C (B16 [3]) of 241% and a T/C (M5076) of 210%. For the same compound, the T/C [4] was 0%.
